From ChEMBL document CHEMBL4346752, “Discovery and evaluation of novel nitrodihydroimidazooxazoles as promising anti-tuberculosis agents” (Bioorg Med Chem Lett, 2019)
Converted amounts (≈) assume the structure as drawn.

These molecules were tested on Mycobacterium tuberculosis variant bovis (assay: Antimycobacterial activity against Mycobacterium bovis ATCC 35737 assessed as reduction in bacterial cell growth incubated for 8 days by alamar blue staining based assay). Settings: ATCC 35737, 192 h.
Assay type: functional
Work on `C[C@]1(CN2CCc3nc(-c4ccc(F)c(Cl)c4)ccc3C2)Cn2cc([N+](=O)[O-])nc2O1` yielded an MIC of at most 0.0625 µg/mL.
Molecule `C[C@]1(CN2CCc3nc(-c4ccc(F)c(F)c4)oc3C2)Cn2cc([N+](=O)[O-])nc2O1` has an MIC of 0.125 µg/mL (≈ 0.299 µM).
`C[C@]1(CN2CCc3nc(-c4ccc(F)cc4)oc3C2)Cn2cc([N+](=O)[O-])nc2O1` gave an MIC of 0.25 µg/mL (≈ 0.626 µM).
Molecule `C[C@]1(CN2CCc3nc(-c4ccc(F)cc4)ccc3C2)Cn2cc([N+](=O)[O-])nc2O1` has an MIC of at most 0.0625 µg/mL.
For `C[C@]1(CN2CCc3nc(-c4cc(F)ccc4F)ccc3C2)Cn2cc([N+](=O)[O-])nc2O1`, the MIC was at most 0.0625 µg/mL.
With `C[C@]1(CN2CCc3nc(-c4ccc(Cl)cc4)ccc3C2)Cn2cc([N+](=O)[O-])nc2O1` the MIC was 2 µg/mL (≈ 4.7 µM).
With `C[C@]1(CN2CCc3nc(-c4ccc(F)cc4)nnc3C2)Cn2cc([N+](=O)[O-])nc2O1` the MIC was 0.5 µg/mL (≈ 1.22 µM).
Work on `C[C@]1(CN2CCc3nc(-c4cccc(F)c4F)ccc3C2)Cn2cc([N+](=O)[O-])nc2O1` yielded an MIC of at most 0.0625 µg/mL.
For `C[C@]1(CN2CCc3nc(C4CCCCC4)ccc3C2)Cn2cc([N+](=O)[O-])nc2O1`, the MIC was 0.25 µg/mL (≈ 0.629 µM).
Molecule `C[C@]1(CN2CCc3nc(C4CC4)ccc3C2)Cn2cc([N+](=O)[O-])nc2O1` has an MIC of 0.5 µg/mL (≈ 1.41 µM).
For `C[C@]1(CN2CCc3sc(-c4ccc(F)cc4)nc3C2)Cn2cc([N+](=O)[O-])nc2O1`, the MIC was 0.25 µg/mL (≈ 0.602 µM).
With `C[C@]1(CN2CCc3nc(-c4cccc(Cl)c4F)ccc3C2)Cn2cc([N+](=O)[O-])nc2O1` the MIC was at most 0.0625 µg/mL.
`C[C@]1(CN2CCc3oc(-c4ccc(F)cc4)cc3C2)Cn2cc([N+](=O)[O-])nc2O1` gave an MIC of 1 µg/mL (≈ 2.51 µM).
In the case of `C[C@]1(CN2CCc3oc(-c4ccc(F)cc4)nc3C2)Cn2cc([N+](=O)[O-])nc2O1`, the MIC is reported as 0.5 µg/mL (≈ 1.25 µM).
In the case of `C[C@]1(CN2CCn3cc(-c4ccc(F)cc4)nc3C2)Cn2cc([N+](=O)[O-])nc2O1`, the MIC is reported as 1 µg/mL (≈ 2.51 µM).
Work on `C[C@]1(CN2CCc3nc(-c4ccc(F)cc4F)ccc3C2)Cn2cc([N+](=O)[O-])nc2O1` yielded an MIC of at most 0.0625 µg/mL.
Work on `C[C@]1(CN2CCc3oc(-c4ccc(F)c(F)c4)nc3C2)Cn2cc([N+](=O)[O-])nc2O1` yielded an MIC of 0.25 µg/mL (≈ 0.599 µM).
Work on `C[C@]1(CN2CCc3nc(-c4cc(F)cc(Cl)c4)ccc3C2)Cn2cc([N+](=O)[O-])nc2O1` yielded an MIC of at most 0.0625 µg/mL.
Molecule `C[C@]1(CN2CCc3nc(-c4ccc(Cl)cc4F)ccc3C2)Cn2cc([N+](=O)[O-])nc2O1` has an MIC of at most 0.0625 µg/mL.
Work on `C[C@]1(CN2CCc3nc(-c4ccc(F)cc4)sc3C2)Cn2cc([N+](=O)[O-])nc2O1` yielded an MIC of 0.125 µg/mL (≈ 0.301 µM).
In the case of `C[C@]1(CN2CCc3nc(-c4cc(F)cc(F)c4)ccc3C2)Cn2cc([N+](=O)[O-])nc2O1`, the MIC is reported as at most 0.0625 µg/mL.
`C[C@]1(CN2CCc3nc(C(F)(F)F)ccc3C2)Cn2cc([N+](=O)[O-])nc2O1` was tested, and the MIC was 2 µg/mL (≈ 5.22 µM).
For `C[C@]1(CN2CCc3nc(-c4ccc(C#N)cc4)ccc3C2)Cn2cc([N+](=O)[O-])nc2O1`, the MIC was 2 µg/mL (≈ 4.8 µM).
For `C[C@]1(CN2CCc3nc(-c4cc(Cl)ccc4F)ccc3C2)Cn2cc([N+](=O)[O-])nc2O1`, the MIC was at most 0.0625 µg/mL.
Work on `C[C@]1(CN2CCc3nc(-c4ccc(F)c(F)c4)ccc3C2)Cn2cc([N+](=O)[O-])nc2O1` yielded an MIC of at most 0.0625 µg/mL.
`C[C@]1(CN2CCc3nc(N4CCC(F)(F)CC4)ccc3C2)Cn2cc([N+](=O)[O-])nc2O1` was tested, and the MIC was 0.5 µg/mL (≈ 1.15 µM).
In the case of `C[C@]1(CN2CCn3cc(-c4ccc(F)c(F)c4)nc3C2)Cn2cc([N+](=O)[O-])nc2O1`, the MIC is reported as 1 µg/mL (≈ 2.4 µM).
`C[C@]1(CN2CCc3nc(N4CCCCC4)ccc3C2)Cn2cc([N+](=O)[O-])nc2O1` was tested, and the MIC was 0.5 µg/mL (≈ 1.25 µM).
For `C[C@]1(CN2CCc3nc(-c4ccccc4)ncc3C2)Cn2cc([N+](=O)[O-])nc2O1`, the MIC was 1 µg/mL (≈ 2.55 µM).
`C[C@]1(CN2CCc3nc(-c4cc(F)ccc4Cl)ccc3C2)Cn2cc([N+](=O)[O-])nc2O1` showed an MIC of at most 0.0625 µg/mL.
Molecule `C[C@]1(CN2CCc3nc(-c4ccc(OC(F)(F)F)cc4)ccc3C2)Cn2cc([N+](=O)[O-])nc2O1` has an MIC of 8 µg/mL (≈ 16.8 µM).
For `C[C@]1(CN2CCc3nc(-c4cc(F)c(F)c(F)c4)ccc3C2)Cn2cc([N+](=O)[O-])nc2O1`, the MIC was at most 0.0625 µg/mL.
In the case of `C[C@]1(CN2CCn3nc(-c4ccc(F)c(F)c4)nc3C2)Cn2cc([N+](=O)[O-])nc2O1`, the MIC is reported as 1 µg/mL (≈ 2.4 µM).
For `C[C@]1(CN2CCc3nc(-c4cccc(F)c4)ccc3C2)Cn2cc([N+](=O)[O-])nc2O1`, the MIC was at most 0.0625 µg/mL.
`C[C@]1(CN2CCc3nc(N4CCOCC4)ccc3C2)Cn2cc([N+](=O)[O-])nc2O1` was tested, and the MIC was 0.5 µg/mL (≈ 1.25 µM).
Molecule `C[C@]1(CN2CCc3nc(-c4ccc(Cl)c(F)c4)ccc3C2)Cn2cc([N+](=O)[O-])nc2O1` has an MIC of at most 0.0625 µg/mL.
With `C[C@]1(CN2CCc3nc(-c4ccccc4)ccc3C2)Cn2cc([N+](=O)[O-])nc2O1` the MIC was 0.25 µg/mL (≈ 0.639 µM).
For `C[C@]1(CN2CCc3nc(C4CCOCC4)ccc3C2)Cn2cc([N+](=O)[O-])nc2O1`, the MIC was 2 µg/mL (≈ 5.01 µM).
In the case of `C[C@]1(CN2CCc3nc(-c4ccc(C(F)(F)F)cc4)ccc3C2)Cn2cc([N+](=O)[O-])nc2O1`, the MIC is reported as at most 0.0625 µg/mL.
Molecule `C[C@]1(COc2ccc(N3CCC(Oc4ccc(OC(F)(F)F)cc4)CC3)cc2)Cn2cc([N+](=O)[O-])nc2O1` has an MIC of at most 0.0625 µg/mL.
`C[C@]1(CN2CCc3nc(-c4ccccc4F)ccc3C2)Cn2cc([N+](=O)[O-])nc2O1` gave an MIC of 0.125 µg/mL (≈ 0.305 µM).
